# Source: patent US9434753B2, “Modified creatine compounds” (Gencia Corporation, priority 2011, dated 2016)
# “Also recorded” adds a separate entry of the source.
# Tests used:
# [1] = test system: HepG2 human liver carcinoma cells; assay: Oxygen consumption rate (OCR) in HepG2 cells; assay type: cell-based; conditions: control is 100
# Protocol: (§1) In this assay, an XF24 extracellular flux analyzer (Seahorse Bioscience, North Billerica, Mass.) was used to measure mitochondrial oxygen consumption in intact cells. The XF24 analyzer creates a transient 7 μl chamber in specialized microplates that allows determination of oxygen and proton concentrations in real time through the measurement of oxygen sensitive dyes by the XF24 instrument. 24 hours prior to OCR measurement, fibroblasts were seeded into 20 wells of the 24 well tissue culture plate while 1 ml of XF Calibrant solution (Seahorse Bioscience, North Billerica, Mass.) was added to each well of a 24 well dual-analyte sensor cartridge (Seahorse Bioscience, North Billerica, Mass.). The sensor cartridge repositioned on the 24 well calibration plate, and the plate was incubated overnight at 37° C. without additional CO2.
# The day of the experiment, the injection ports on the sensor cartridge were loaded with compound 1 or creatine as indicated at 10× concentrations and placed into the XF24 Flux Analyzer for automated calibration. During the sensor calibration, cells in each of the tissue culture well were rinsed once in 1 mL of unbuffered media. 675 μL of unbuffered media was then added to each well, and the plate was incubated for an hour in the absence of additional CO2. Plates were subsequently placed into the calibrated seahorse XF24 flux analyzer for bioenergetic analysis. An equivalent number of cells per well are plated using a cell counter. Further normalization is achieved by taking baseline measurements of OCR on a well-by-well basis, and the increase observed is a comparison to the same well prior to treatment. Thus each well serves as its own control.
# Using the same procedure, the oxygen consumption rate (OCR) for additional compounds were measure in HepG2 human liver carcinoma cells. Compounds were added in concentrations ranging from 0.25 nM to 200 nM.
# [2] = test system: recombinant CPK (Native Human Creatine Kinase); assay: Determination of CPK activity (ATP hydrolysis/consumption, luciferase); assay type: biochemical; conditions: 5 mM compound or creatine, 1 mM ATP, CPK 10 units/well, compound 1 compared with equimolar creatine
# Protocol: Disclosed herein is an in vitro assay for determining the activity of recombinant CPK on the modified creatine compounds. Recombinant CPK is mixed with ATP and a modified creatine compound of interest. ATP hydrolysis, a measure of the rate of transfer of the gamma phosphate from ATP to the guanidinium groups of the creatine subunit, was measured using luciferase. The rate of ATP hydrolysis/consumption for the modified creatine compound is then compared to the rate of ATP hydrolysis/consumption for creatine. An in vitro assay was performed to determine the activity of recombinant CPK on the modified creatine compounds (CK, Native Human Creatine Kinase from Cell Sciences Catalog No: CSI14786B). Recombinant CPK (10 units/well) is mixed with 1 mM ATP and the compound of example 1 (compound 1) at varying concentrations (5 mM, 2.5 mM, and 1 mM) or creatine (5 mM). ATP hydrolysis; a measure of the rate of transfer of the gamma phosphate from ATP to the guanidinium groups of the creatine subunit was then measured for each sample using luciferase. Luciferase is then added (GLO kit from Promega) according to manufacturer instructions. As ATP is consumed, light is emitted. Every 2 minutes we collected the emitted light in our plate reader in lumens. The data is collected over 30 minutes to generate a slope. The slope is a measure of ATP consumption. […]
# fibroblasts = assay: Oxygen consumption rate (OCR), XF24 extracellular flux analyzer, fibroblasts; assay type: cell-based; conditions: 5 nM to 500 nM, within thirty minutes of treatment, compared to 10 μM unmodified creatine
# Protocol: as §1, with “CO2. The day of the experiment, the injection ports on the sensor cartridge were loaded with compound 1 or creatine as indicated at 10× concentrations and placed into the XF24 Flux Analyzer for automated calibration. During the sensor calibration, cells in each of the tissue culture well were rinsed once in 1 mL of unbuffered media. 675 μL of unbuffered media was then added to each well, and the plate was incubated for an hour in the absence of additional CO2. Plates were subsequently placed into the calibrated seahorse XF24 flux analyzer for bioenergetic analysis. […]” for “CO2.”
# Complex I = Complex I (CI) activity microplate assay in treated fibroblasts; assay type: cell-based; conditions: 25 nM, within thirty minutes, compared to 10 μM unmodified creatine
# Protocol: Complex I activity was determined using a CI microplate assay (MS 141) from MitoSciences (Eugene, Oreg.) according to the manufacturer's protocol. Fibroblasts were plated in T75 flasks. 24 hours after plating, the cells were treated with various concentrations of compound of example 1 in media for 30 min. The cells were then lysed, and the mitochondria were isolated using reagents provided in the CI assay kit according to the manufacturer's protocol. After determination of the protein concentrations, 20 μg of the purified mitochondria in a total volume of 200 μl was added in quadruplicate to the 96-well microplate and the CI enzyme was immunocaptured within the wells. CI activity was measured colorimetrically with a PHERAstar FS (BMG LABTECH Inc, Cary, N.C., USA) as a change in the absorbance following the oxidation of NADH to NAD+ and the simultaneous reduction of a dye which leads to increased absorbance at 450 nm over time (0-105 min). The average±SD of the quadruplicate values for each time point and treatment group were graphed, and the rate of CI activity was determined by the initial slope (i.e., values in the linear range from 20 to 50 min), expressed as change in optical density per minute.
smiles,measurement,setting,value
"CN(CC1(C(=O)NCCC[P+](c2ccccc2)(c2ccccc2)c2ccccc2)CC1)C(=N)N.O=C(O)C(F)(F)F.O=C([O-])C(F)(F)F [Example 8, [3-({[1-({[ammonio(imino)methyl](methyl)amino}methyl)cyclopropyl]carbonyl}amino)propyl](triphenyl)phosphonium bis(trifluoroacetate)]",OCR,[1]; 2.5 nM,115.7%
"CN(CC1(C(=O)NCCC[P+](c2ccccc2)(c2ccccc2)c2ccccc2)CCOCC1)C(=N)N.O=C(O)C(F)(F)F.O=C([O-])C(F)(F)F [Example 9, [3-({[4-({[ammonio(imino)methyl](methyl)amino}methyl)tetrahydro-2H-pyran-4-yl]carbonyl}amino)propyl](triphenyl)phosphonium bis(trifluoroacetate)]",OCR,[1]; 2.5 nM,121.9%
"CN(CCC(C)(C)C(=O)NCCCC[P+](c1ccccc1)(c1ccccc1)c1ccccc1)C(=N)N.O=C(O)C(F)(F)F.O=C([O-])C(F)(F)F [Example 7, {4-[(4-{[ammonio(imino)methyl](methyl)amino}-2,2-dimethylbutanoyl)amino]butyl}(triphenyl)phosphonium bis(trifluoroacetate)]",OCR,[1]; 20 nM,112%
"CN(CCCC(=O)NCCCC[P+](c1ccccc1)(c1ccccc1)c1ccccc1)C(=N)N.O=C(O)C(F)(F)F.O=C([O-])C(F)(F)F [Example 6, {4-[(4-{[ammonio(imino)methyl](methyl)amino}butanoyl)amino]butyl}(triphenyl)phosphonium bis(trifluoroacetate)]",OCR,[1]; 0.25 nM,121%
"CN(CC(=O)O)C(=N)N [creatine, 2-(carbamimidoyl-methyl-amino) acetic acid]",rate of ATP hydrolysis/consumption,[2],increase in ATP hydrolysis/consumption
"CN(CC(=O)NCCC[P+](c1ccccc1)(c1ccccc1)c1ccccc1)C(=N)N [Example 1, N^2-[ammonio(imino)methyl]-N^2-methyl-N-[3-(triphenylphosphonio)propyl]glycinamide bis(trifluoroacetate)]",rate of ATP hydrolysis/consumption,[2]; bis(trifluoroacetate),higher rate of ATP hydrolysis/consumption relative to creatine; also recorded: significantly higher rate of ATP hydrolysis/consumption than creatine
same,oxygen consumption rate,fibroblasts,significant increase in oxygen consumption rate
same,OCR,[1]; 10 nM,124%
same,Complex I activity (change in optical density per minute),Complex I,significant increase in Complex I activity
"CN(CC(=O)N(C)CCC[P+](c1ccccc1)(c1ccccc1)c1ccccc1)C(=N)N [Example 2, N^2-[ammonio(imino)methyl]-N,N^2-dimethyl-N-[3-(triphenylphosphonio)propyl]glycinamide bis(trifluoroacetate)]",OCR,[1]; 10 nM,106%
"CN(CCC(=O)NCCCC[P+](c1ccccc1)(c1ccccc1)c1ccccc1)C(=N)N.O=C(O)C(F)(F)F.O=C([O-])C(F)(F)F [Example 5, N^3-[ammonio(imino)methyl]-N^3-methyl-N-[4-(triphenylphosphonio)butyl]-O-alaninamide bis(trifluoroacetate)]",OCR,[1]; 10 nM,117.9%
